# From ChEMBL document CHEMBL1147267, “New strongylophorines from the Okinawan marine sponge Petrosia (Strongylophora) corticata” (J Nat Prod, 2003)
# Test system: HeLa
# Experiment: Cytotoxicity against human HeLa cells
# Format: functional, cell-based
row,Structure (SMILES),IC50 [µM]
1,C[C@@]12CC[C@@H]3[C@]4(CCC[C@]3(C)C(=O)OC4)[C@H]1CC[C@]1(C)Oc3ccc(O)cc3C[C@@H]21 [STRONGYLOPHORIN 2],> 100
2,C[C@]12CCC[C@](C)(C(=O)O)[C@@H]1CC[C@]1(C)[C@@H]2CC[C@]2(C)Oc3ccc(O)cc3C[C@@H]12 [Strongylophorin-3],45.2
3,C[C@]12CCC[C@](C)(C=O)[C@@H]1CC[C@]1(C)[C@@H]2CC[C@]2(C)Oc3ccc(O)cc3C[C@@H]12 [Strongylophorin-4],50.5
4,CC1(C)CCC[C@]2(C)[C@H]3CC[C@]4(C)Oc5ccc(O)cc5C[C@H]4[C@]3(C)CC[C@@H]12 [Strongylophorin-22],26.6
5,CC1(C)CCC[C@@]2(CO)[C@H]1CC[C@]1(C)[C@@H]2CC[C@]2(C)Oc3ccc(O)cc3C[C@@H]12 [Strongylophorin-23],62
6,COc1ccc2c(c1)C[C@H]1[C@]3(C)CC[C@@H]4[C@](C)(CCC[C@]4(C)C(=O)O)[C@H]3CC[C@]1(C)O2 [Strongylophorine-1],49.1
7,CC1(C)CCC[C@@]2(C=O)[C@H]1CC[C@]1(C)[C@@H]2CC[C@]2(C)Oc3ccc(O)cc3C[C@@H]12 [Strongylophorine-24],> 100
